Test results as given in patent EP3925667A1, “SELECTIVE TMPRSS2 INHIBITORS AND MEDICAL USE THEREOF” (priority 2020, dated 2021).
Counter-ions that a name gives are not always drawn. Like-named read-outs stand apart in the source and are kept apart here.

Assays:
[1] = molecular target: T1, Recomb. Human Coag. Factor Xa protein (Homo sapiens, UniProt P00742); test: Protease Factor Xa inhibition assay, chromogenic substrate Bz-Ile-Glu-Gly-Arg-pNA; format: biochemical; details: 0.35 nM Factor Xa, 200 µM reference substrate, 30 minutes preincubation, absorption 405 nm, 25°C
T1 construct: purchased Bio-Techne GmbH 1063-SE-010
T1 sequence (P00742 235-488 limits assumed): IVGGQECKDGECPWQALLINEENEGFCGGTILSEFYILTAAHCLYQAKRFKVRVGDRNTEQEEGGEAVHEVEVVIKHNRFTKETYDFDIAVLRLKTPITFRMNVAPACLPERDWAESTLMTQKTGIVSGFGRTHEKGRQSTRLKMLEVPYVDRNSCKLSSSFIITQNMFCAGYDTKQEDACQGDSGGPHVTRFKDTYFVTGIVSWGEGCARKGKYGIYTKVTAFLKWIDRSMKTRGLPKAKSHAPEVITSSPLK
T1 sequence (P00742 41-179 partner limits assumed): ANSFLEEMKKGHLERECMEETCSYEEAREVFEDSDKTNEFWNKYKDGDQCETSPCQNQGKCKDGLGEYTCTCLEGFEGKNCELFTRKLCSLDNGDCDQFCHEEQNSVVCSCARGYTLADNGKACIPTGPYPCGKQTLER
Experimental: (§1) Protease Factor Xa inhibiton assay - Calculation of IC50 values
(§2) Recomb. Human Coag. Factor Xa protein, CF: Bought 09.12.2020; Art. 1063-SE-010; Company: Bio-Techne GmbH
(§3) • Reconstitute at 100 µg/ml in sterile 25 mM MES, 150 mM NaCl, 5 mM CaCl2, pH6 • Diluted to a stock solution of 1000 nM with TNC buffer • This stock solution was further diluted with TNC buffer to a concentration of 35 nM and aliquoted. Stored at -20°C. Endconcentration in well: c = 0.35 nM
• Delivered: 5mg. Dilute and aliquote reference substrate to a concentration of 10 mM in pure DMSO. Endconcentration in well: c = 200 µM (= KM for Factor Xa)
(§4) • Inhibitor was diluted with pure DMSO to a concentration of 10 mM • This 10 mM stock solution was further diluted:
(§5) • 25 mM Tris, 150 mM NaCl, 5 mM CaCl2, 0,01% Triton X-100, pH = 8 (stored at 8°C)
(§6) • Total volume per well: 100µl • Temperature: 25°C • Kinetic interval: every 2 minutes • Absorption: 405 nm • Number of flashes: 25 • Shaking before measurememt: 3s • Shaking amplitude: 5 mm
(§7) • Per well: add 97 µl TNC buffer, add 1 µl of c = 35 nM solution of Factor Xa, add 1 µl of inhibitor • Incubate for 30 minutes at room temperature • After incubation, add 1 µl of c = 10 mM reference substrate Endconcentration of substances per well: c = 200 µM of reference substrate, c = 0.35 nM of Factor Xa solution, 2% DMSO
(§8) Graph pad prism 7 was used to analyze the data. The velocity (change of absorbance over time) was plotted against the concentration. A non linear regression was performed with the following equation: [inhibitor] vs. response - Variable slope (four parameters) Table 1. IC50 values of inventive inhibitors with respect to TMPRSS2, thrombin and Factor Xa

SARS-CoV2 WT [2] = details: 2 h
Recomb. Human Thrombin [3] = molecular target: T2, Recomb. Human Thrombin (Homo sapiens, UniProt P00734); test: Protease Thrombin inhibition assay, chromogenic substrate D-Phe-Homopro-Arg-pNA; format: biochemical; details: 30 minutes preincubation at room temperature, 100 µM reference substrate, absorption 405 nm, 25°C
T2 construct: purchased R&D systems 1473-SE-010
Experimental: (§9) Protease Thrombin inhibiton assay - Calculation of IC50 values
Protease: Recomb. Human Thrombin, Bought 30.01.2020; Art. 1473-SE-010; Company: R&D systems Reference substrate: D-Phe-Homopro-Arg-pNA; Company: Bachem; Art no.: 4008145.0050
• Reconstitute at 100 µg/ml (1428.57 nM) in sterile 50 mM HEPES and 640 mM NaCl • Diluted to a stock solution c = 0.04 µg/µl with TNC buffer
(§10) • Dilute and aliquote 2.1 mg of reference substrate to a concentration of c = 2000 µM in TNC. Dilute and aliquote further to a concentration of c = 200 µM in TNC buffer. Endconcentration in well: c = 100 µM.
as §4, §5, §6
(§11) • Per well: add 50 µl of Thrombin/TNC solution (c = 0.04 µg/µl), add 1 µl of inhibitor. • Incubate for 30 minutes at room temperature • After incubation, add […] of c = 200 µM reference substrate Endconcentration of substances per well: c = 100 µM of reference substrate, c = 0.002 µg of […] solution, 1% DMSO
(§12) • Graph pad prism 7 was used to analyze the data. The velocity (change of absorbance over time) was plotted against the concentration. A non linear regression was performed with the following equation: [inhibitor] vs. response - Variable slope (four parameters)

[4] = tested on: pseudotyped particle LV(Luc)-CoV2 in CaCo-2 cells; details: 2 h
TMPRSS2 [5] = molecular target: T3, TMPRSS2 (Homo sapiens, UniProt O15393); test: TMPRSS2 inhibition, IC50 (Table 1); format: biochemical; details: nonlinear regression, variable slope (four parameters)
T3 sequence (O15393 whole entry): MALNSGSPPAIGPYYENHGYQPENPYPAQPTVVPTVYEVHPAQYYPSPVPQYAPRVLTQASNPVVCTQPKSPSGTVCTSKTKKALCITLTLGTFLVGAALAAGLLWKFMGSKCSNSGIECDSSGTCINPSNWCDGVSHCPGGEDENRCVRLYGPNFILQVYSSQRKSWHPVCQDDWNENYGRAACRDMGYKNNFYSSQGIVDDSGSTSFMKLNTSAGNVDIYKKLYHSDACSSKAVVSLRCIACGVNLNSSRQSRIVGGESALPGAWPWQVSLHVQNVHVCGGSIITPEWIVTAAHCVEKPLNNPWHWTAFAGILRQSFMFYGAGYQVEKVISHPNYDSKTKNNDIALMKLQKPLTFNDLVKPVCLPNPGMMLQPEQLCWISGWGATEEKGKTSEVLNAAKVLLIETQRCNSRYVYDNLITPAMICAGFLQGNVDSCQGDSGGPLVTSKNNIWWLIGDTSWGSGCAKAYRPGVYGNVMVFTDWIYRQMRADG

[6] = tested on: pseudotyped particle LV(Luc)-CoV2 in CaCo-2 cells; test: microbe, parasite or virus in culture; format: cell-based, SARS-CoV2; details: Severe acute respiratory syndrome coronavirus 2, 2 h incubation with inhibitor before transduction, luciferase activity at 48 h post transduction
SARS-CoV2 WT [7] = test: microbe, parasite or virus in culture; format: cell-based; details: Severe acute respiratory syndrome coronavirus 2
[8] = molecular target: T1, Recomb. Human Coag. Factor Xa protein; test: Protease Factor Xa inhibition assay, chromogenic substrate Bz-Ile-Glu-Gly-Arg-pNA; format: biochemical; details: 0.35 nM Factor Xa, 200 µM reference substrate, 30 minutes preincubation, absorption 405 nm, 25°C; remark: listed apart in the source
Experimental: as §1, §2, §3
• Delivered: 5mg. Dilute and aliquote reference substrate to a concentration of 10 mM in pure DMSO.
as §4, §5, §6, §7, §8

TMPRSS2 [9] = molecular target: T3, TMPRSS2; test: TMPRSS2 inhibition, IC50 (Table 1); format: biochemical; details: nonlinear regression, variable slope (four parameters); remark: listed apart in the source
Text: Inhibitors were screened against TMPRSS2, thrombin and factor Xa.

Recomb. Human Thrombin [10] = molecular target: T2, Recomb. Human Thrombin; test: Protease Thrombin inhibition assay, chromogenic substrate D-Phe-Homopro-Arg-pNA; format: biochemical
Experimental: as §9, §10, §4, §5, §11, §12

| SMILES | IC50 [1] [µM] | IC50 (SARS-CoV2 WT [2]) [µM] | IC50 (Recomb. Human Thrombin [3]) [µM] | IC50 [4] [µM] | IC50 (TMPRSS2 [5]) [µM] | IC50 [8] [µM] | also measured |
| --- | --- | --- | --- | --- | --- | --- | --- |
| CC(=O)N[C@@H](CCC(N)=O)C(=O)N[C@@H](CCC(N)=O)C(=O)N[C@H](C(=O)N[C@@H](CCCNC(=N)N)C(=O)c1nc2ccccc2s1)C(C)C [Compound 4, Ac-QQVR-kbt] | 1.5 | 58.5 | > 10 | 2.05 | 0.5 | – | – |
| CC(=O)NCC(=O)N[C@@H](CCC(N)=O)C(=O)N[C@@H](CCCNC(=N)N)C(=O)N[C@@H](CCCNC(=N)N)C(=O)c1nc2ccccc2s1 [Compound 3, Ac-GQRR-kbt] | 22 | 20.1 | > 100 | 1.3 | 0.332 | – | – |
| CC(=O)N[C@@H](CCCCN)C(=O)N[C@@H](CCC(N)=O)C(=O)N[C@@H](CC(C)C)C(=O)N[C@@H](CCCNC(=N)N)C(=O)c1nc2ccccc2s1 [Ref.1, Ac-KQLR-kbt, reference compound] | 0.338 | 15.6 | > 100 | 3.01 | 3.43 | – | – |
| CC(=O)N[C@@H](C)C(=O)N[C@@H](CCC(=O)O)C(=O)N[C@@H](CCC(N)=O)C(=O)N[C@@H](CCCNC(=N)N)C(=O)c1nc2ccccc2s1 [Compound 2, Ac-AEQR-kbt] | 0.991 | 19 | > 100 | 0.47 | 1.67 | – | – |
| CN(C)C(=O)COC(=O)Cc1ccc(OC(=O)c2ccc(NC(=N)N)cc2)cc1 [Ref.5, Camostat mesylate] | – | – | – | – | – | 5.3 | IC50 [6]: 0.505 µM; IC50 (SARS-CoV2 WT [7]): 32.4 µM |
| CC[C@H](C)[C@H](NC(=O)[C@H](C)NC(=O)[C@H](CCC(=O)O)NC(=O)[C@H](CCC(=O)O)NC(=O)[C@H](CC(C)C)NC(=O)[C@H](CCCCN)NC(=O)[C@H](CCCCN)NC(=O)[C@H](CCSC)NC(=O)[C@H](CCC(=O)O)NC(=O)[C@H](Cc1ccc(O)cc1)NC(=O)[C@H](CCC(=O)O)NC(=O)[C@H](CC(C)C)NC(=O)[C@H](CC(=O)O)NC(=O)[C@H](CC(C)C)NC(=O)[C@H](Cc1ccccc1)NC(=O)[C@@H](NC(=O)[C@@H](NC(=O)[C@H](CC(N)=O)NC(=O)[C@@H](NC(=O)[C@H](CCC(N)=O)NC(=O)[C@H](CC(=O)O)NC(=O)[C@H](CC(C)C)NC(=O)[C@@H](N)CO)[C@@H](C)CC)C(C)C)[C@@H](C)O)C(=O)N[C@@H](CCCCN)C(=O)N[C@@H](CCCCN)C(=O)N[C@@H](CC(C)C)C(=O)N[C@@H](CCC(=O)O)C(=O)N[C@@H](CCC(=O)O)C(=O)N[C@@H](CO)C(=O)N[C@@H](Cc1ccc(O)cc1)C(=O)N[C@H](C(=O)N[C@@H](CC(=O)O)C(=O)N[C@@H](CC(C)C)C(=O)N[C@@H](CCCCN)C(=O)N[C@@H](CCC(=O)O)C(=O)N[C@@H](CC(C)C)C(=O)O)[C@@H](C)CC [Ref.9, EK1, reference compound] | – | – | – | 0.228 | – | – | – |
| CC(=O)N[C@@H](CCC(=O)O)C(=O)N[C@@H](CCC(N)=O)C(=O)N1CCC[C@H]1C(=O)N[C@@H](CCCNC(=N)N)C(=O)c1nc2ccccc2s1 [Compound 5, Ac-EQPR-kbt] | > 100 | – | > 100 | 2.1 | 2.87 | – | – |
| CC(=O)N[C@@H](CCCNC(=N)N)C(=O)N[C@@H](CCC(N)=O)C(=O)N[C@@H](CC(C)C)C(=O)N[C@@H](CCCNC(=N)N)C(=O)c1nc2ccccc2s1 [Compound 1, Ac-RQLR-kbt] | 0.0471 | 11.1 | > 100 | 0.803 | 1.26 | – | – |
| CC(=O)N[C@@H](CC(C)C)C(=O)N[C@@H](CC(C)C)C(=O)N[C@H](C=O)CCCNC(=N)N [Ref.3, Leupeptin] | – | – | – | – | – | > 13.9 | IC50 [6]: 36.8 µM; IC50 (TMPRSS2 [9]): > 27.6 µM; IC50 (Recomb. Human Thrombin [10]): > 100 µM |
| [H]/N=C(/N)c1ccc(NCc2nc3cc(C(=O)N(CCC(=O)O)c4ccccn4)ccc3n2C)cc1 [Ref.2, Dabigatran] | – | – | – | – | – | – | IC50 (TMPRSS2 [9]): > 100 µM |
| N=C(N)Nc1ccc(C(=O)Oc2ccc(CC(=O)O)cc2)cc1 [Ref.8, FOY 251] | – | – | – | – | – | 21.5 | IC50 (Recomb. Human Thrombin [10]): > 100 µM |
| N=C(N)NCCC[C@H](NC(=O)[C@@H]1CCCN1C(=O)[C@H](N)Cc1ccccc1)C(=O)CCl [Ref.6, PPack] | – | – | – | – | – | 0.0745 | IC50 (TMPRSS2 [9]): > 100 µM; IC50 (Recomb. Human Thrombin [10]): 0.000268 µM |
| CC(=O)N[C@@H](CC(N)=O)C(=O)N[C@@H](CCC(=O)O)C(=O)N[C@@H](CCC(N)=O)C(=O)N[C@@H](CCCNC(=N)N)C(=O)c1nc2ccccc2s1 [Compound 6, Ac-NEQR-kbt] | 8.14 | 34.2 | > 100 | 1.4 | 1.19 | – | – |
| N=C(N)c1ccc(CNC(=O)[C@@H]2CCN2C(=O)[C@H](NCC(=O)O)C2CCCCC2)cc1 [Ref.7, Melagatran] | – | – | – | – | – | 0.216 | – |
| N=C(N)c1ccccc1 [Ref.4, Benzamidine] | – | – | – | – | – | > 100 | IC50 [6]: > 1000 µM; IC50 (TMPRSS2 [9]): > 100 µM |
| CC(=O)N[C@@H](CCCNC(=N)N)C(=O)N[C@@H](CCC(=O)O)C(=O)N[C@@H](CS)C(=O)N[C@@H](CCCNC(=N)N)C(=O)c1nc2ccccc2s1 [Compound 7, Ac-RECR-kbt] | 0.611 | – | > 100 | – | 0.835 | – | – |
